Drawing on paper PMC6471485, “Selective Inhibitors of a Human Prolyl Hydroxylase (OGFOD1) Involved in Ribosomal Decoding” (Chemistry (Weinheim an Der Bergstrasse, Germany), 2019), this text covers IC50 for two compounds.

Values joined by “and” are separate entries in the source; they are usually repeats but may differ in a detail not shown here. Equal values may be shown once.

Holding throughout (assay type): biochemical
Assay [1] addresses JARID1C (Homo sapiens, UniProt P41229). As to the kind of experiment: JARID1C AlphaScreen-based assay. The protocol:
(§1) reactions were quenched after 4 min. KDM4A inhibition was tested as described previously using a formaldehyde dehydrogenase (FDH) assay.[9] JARID1B and JARID1C inhibition was tested as described previously using reported AlphaScreen-based assays.[10] MINA531-464 and NO66116-641 were cloned into pFB-LIC-Bse, and the N-terminal His-tagged proteins were produced in Sf9 insect cells. The MINA53 peptide substrate Rpl27a […]
(§2) (Gly31 – Pro49 […]) and the NO66 peptide substrate Rpl8
(§3) (Asn205 – Thr224 […]) were synthesized by Peptide Protein
Research Ltd (Fareham, Hampshire, UK) to >95% purity. IC50 determinations were performed in 384-well polypropylene plates (Greiner Bio One, Cat Number 781096), and compound dispenses were performed using an ECHO 550 acoustic dispenser (Labcyte, Sunnyvale, CA).
NO66 (diluted to 375 nM in 50 mM MES pH 7.0, 150 mM NaCl) and MINA53 (diluted to 187.5 nM in 50 mM HEPES pH 7.5, 50 mM NaCl) were dispensed (40 µL) into 384-well compound plates using a multidrop combi reagent dispenser (Thermo Scientific, Code 5840300) with a small tube plastic tip dispensing cassette (Thermo Scientific, Code 24073290).
NO66 and MINA53 were pre-incubated with compound for 15 minutes, and the enzyme reaction initiated by dispensing 10 µL of substrate solution [250 µM (NH4)2Fe(SO4)2, 500 µM sodium ascorbate, 25 µM 2OG, 25 µM peptide] in optimized enzyme buffer. […]

The target in assay [2] is T1, MINA53 (Homo sapiens, UniProt Q8IUF8).
T1 construct: 1-464 and NO66116-641 were cloned into pFB-LIC-Bse; His (N); made in house; host or cells: Sf9 insect cells
T1 sequence (Q8IUF8 1-464 limits assumed): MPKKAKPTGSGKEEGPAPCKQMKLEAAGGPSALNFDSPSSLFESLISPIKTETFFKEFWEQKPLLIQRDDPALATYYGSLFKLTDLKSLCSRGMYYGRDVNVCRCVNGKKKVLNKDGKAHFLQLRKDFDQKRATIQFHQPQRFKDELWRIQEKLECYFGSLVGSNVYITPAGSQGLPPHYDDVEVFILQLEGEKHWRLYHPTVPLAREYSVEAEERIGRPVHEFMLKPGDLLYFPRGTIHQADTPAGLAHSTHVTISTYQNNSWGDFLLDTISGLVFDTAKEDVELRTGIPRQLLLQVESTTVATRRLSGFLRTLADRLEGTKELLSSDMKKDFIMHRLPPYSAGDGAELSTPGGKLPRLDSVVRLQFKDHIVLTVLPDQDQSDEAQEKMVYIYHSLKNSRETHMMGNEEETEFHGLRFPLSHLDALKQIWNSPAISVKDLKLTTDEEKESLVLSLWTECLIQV
As to the kind of experiment: MINA53 IC50 determination, RapidFire MS. The protocol:
as §1, §2, §3
Research Ltd (Fareham, Hampshire, UK) to >95% purity. IC50 determinations were performed in 384-well polypropylene plates (Greiner Bio One, Cat Number 781096), and compound dispenses were performed using an ECHO 550 acoustic dispenser (Labcyte, Sunnyvale, CA). […]
RapidFire integrator software (Agilent). Percent conversion was calculated in Excel, and IC50 curves were generated using Prism v. […]
Assays consisted of enzyme (2 µM), inhibitor (200 µM), MnCl2 (50 µM), and SYPRO Orange (1:5000 dilution), all prepared in 50 mM HEPES, pH 7.5. […] An Opticon thermal cycler (MJ Research Inc) was used to control temperature and measure fluorescence. […]
CPMG Binding Experiments: Binding of the inhibitors to the proteins was monitored using Carr-Purcell-Meiboom-Gill (CPMG)-edited 1H spectra. […]

The target in assay [3] is T2, OGFOD1 (Homo sapiens, UniProt Q8N543).
T2 sequence (Q8N543 1-542): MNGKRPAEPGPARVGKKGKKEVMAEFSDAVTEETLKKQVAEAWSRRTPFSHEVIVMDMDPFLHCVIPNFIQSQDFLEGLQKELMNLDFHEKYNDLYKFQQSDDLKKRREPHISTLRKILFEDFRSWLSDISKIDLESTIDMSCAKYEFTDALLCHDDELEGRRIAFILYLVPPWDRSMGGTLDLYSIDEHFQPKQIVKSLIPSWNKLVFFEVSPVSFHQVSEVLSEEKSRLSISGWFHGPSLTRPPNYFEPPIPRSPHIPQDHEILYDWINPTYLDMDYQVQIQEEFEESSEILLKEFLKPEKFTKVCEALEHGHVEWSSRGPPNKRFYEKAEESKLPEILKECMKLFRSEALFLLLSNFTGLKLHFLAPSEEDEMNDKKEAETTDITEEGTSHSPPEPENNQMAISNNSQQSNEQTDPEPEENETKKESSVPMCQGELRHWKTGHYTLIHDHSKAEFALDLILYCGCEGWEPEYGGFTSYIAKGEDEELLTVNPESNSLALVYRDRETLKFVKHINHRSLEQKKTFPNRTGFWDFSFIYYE
As to the kind of experiment: OGFOD1 inhibition assay: hydroxylation of RPS23 51-70 peptide by MALDI-TOF MS. The following applies: IC50 against OGFOD1, 1 μM OGFOD1; minimum measurable IC50 0.5 μM; values for 24 and 25 regarded as preliminary. On the procedure: OGFOD1 inhibition assays were performed by determining the extent of hydroxylation of a 20mer fragment of human ribosomal protein S23 (RPS23) containing residues 51-70 (H2N- […]
-CONH2) by matrix-assisted laser desorption/ionization time-of-flight mass spectrometry (MALDI-TOF MS) using a Waters Micromass MALDI micro MX mass spectrometer and MassLynx 4.1, as previously described.[7,8] The optimized hydroxylation assay involved incubation of OGFOD1 (1 µM) with inhibitor (1 % v/v in DMSO) in the presence of (NH4)2Fe(SO4)2 (50 µM), the disodium salt of 2-oxoglutarate (25 µM), […]
OGFOD1 was pre-incubated with inhibitor for 5 min before initiation of the reaction via the addition of the other reagents. Reactions were quenched with formic acid (1 % v/v) after 15 min. Samples were prepared for MALDI using α-cyano-4-hydrocinnamic acid (CHCA; prepared in 50 % acetonitrile) as a matrix. Dose-responses were assessed in 8-point triplicates, normalized to a no enzyme negative control and a no inhibitor positive control. Non-linear regression analysis was performed using Prism (GraphPad). […]

Sequence of JARID1C (P41229 whole entry): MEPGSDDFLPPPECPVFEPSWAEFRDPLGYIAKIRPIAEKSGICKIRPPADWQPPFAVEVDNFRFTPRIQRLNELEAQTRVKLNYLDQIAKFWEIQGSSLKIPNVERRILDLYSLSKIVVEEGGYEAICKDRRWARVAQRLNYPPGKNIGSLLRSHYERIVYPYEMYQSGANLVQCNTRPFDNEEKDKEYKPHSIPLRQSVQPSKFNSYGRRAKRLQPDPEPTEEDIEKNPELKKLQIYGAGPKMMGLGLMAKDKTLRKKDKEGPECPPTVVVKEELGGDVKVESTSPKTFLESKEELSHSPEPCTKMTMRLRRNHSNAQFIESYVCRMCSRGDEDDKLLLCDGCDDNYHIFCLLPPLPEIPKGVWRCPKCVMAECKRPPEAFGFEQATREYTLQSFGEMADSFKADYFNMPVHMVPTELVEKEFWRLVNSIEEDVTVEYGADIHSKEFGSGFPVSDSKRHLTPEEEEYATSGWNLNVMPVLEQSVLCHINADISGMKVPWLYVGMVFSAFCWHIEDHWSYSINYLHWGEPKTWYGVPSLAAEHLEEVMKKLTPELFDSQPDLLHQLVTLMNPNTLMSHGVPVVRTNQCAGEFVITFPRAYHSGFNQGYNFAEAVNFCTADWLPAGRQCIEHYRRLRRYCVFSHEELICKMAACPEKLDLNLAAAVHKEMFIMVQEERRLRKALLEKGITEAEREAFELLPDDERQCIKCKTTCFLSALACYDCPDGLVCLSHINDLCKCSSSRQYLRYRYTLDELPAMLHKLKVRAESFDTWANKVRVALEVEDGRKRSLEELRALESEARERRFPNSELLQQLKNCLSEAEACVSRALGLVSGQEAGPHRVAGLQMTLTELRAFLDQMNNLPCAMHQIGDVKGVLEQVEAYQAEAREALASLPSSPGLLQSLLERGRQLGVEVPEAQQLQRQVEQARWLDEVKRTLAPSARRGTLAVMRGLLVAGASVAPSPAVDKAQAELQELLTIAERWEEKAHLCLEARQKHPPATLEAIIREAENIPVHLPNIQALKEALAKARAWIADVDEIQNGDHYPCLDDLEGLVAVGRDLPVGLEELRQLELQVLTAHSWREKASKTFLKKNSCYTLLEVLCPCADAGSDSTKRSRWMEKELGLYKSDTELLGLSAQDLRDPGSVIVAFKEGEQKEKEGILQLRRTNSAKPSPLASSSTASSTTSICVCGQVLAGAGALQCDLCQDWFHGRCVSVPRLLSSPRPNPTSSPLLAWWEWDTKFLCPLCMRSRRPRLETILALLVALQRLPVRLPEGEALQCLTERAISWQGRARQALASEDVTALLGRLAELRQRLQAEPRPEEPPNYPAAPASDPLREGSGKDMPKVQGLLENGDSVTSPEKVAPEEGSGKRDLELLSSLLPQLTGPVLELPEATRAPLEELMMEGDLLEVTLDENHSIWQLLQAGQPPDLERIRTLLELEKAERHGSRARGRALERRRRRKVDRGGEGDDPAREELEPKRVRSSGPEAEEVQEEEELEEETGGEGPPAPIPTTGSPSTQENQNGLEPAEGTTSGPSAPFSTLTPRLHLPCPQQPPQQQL

As a reminder, the IC50 is the concentration that gives 50% inhibition. High values mean weaker potency, low ones greater potency. As to `Cn1c(O)c(C(=O)CCc2cccs2)c(=O)n(C)c1=O` [compound 42], the IC50 is > 100 µM in assay [1]; > 100 µM in assay [2]; 690 nM and < 1000 nM in assay [3].
As to `Cn1c(O)c(C(=O)CCc2ccccc2)c(=O)n(C)c1=O` [compound 26], the 50% inhibitory concentration (IC50) in assay [1] was > 100 µM; in assay [2], > 100 µM; in assay [3] it was 700 nM and 730 nM and < 1000 nM.
